Laboratory results published in publication PMC6090053, “Substrate Specificity of Acyltransferase Domains for Efficient Transfer of Acyl Groups” (Frontiers in Microbiology, 2018).
Values belong to the compound of their own block, whether it stands above or below them.

Assays:
[1] = target: T1, AT5monAIV of monensin PKS (Streptomyces virginiae, UniProt Q846X3); experiment: trans-acylation of holo-ACP10FkbA, HPLC-MS; type: biochemical; settings: 16 uM acyl-CoA, 16 uM holo-ACP10FkbA, 1.6 uM AT, pH 8.0, 25 C, 2 h
T1 construct: gene monAIV; excised AT domain of module 5, synthetic gene, E. coli BL21(DE3), Ni-NTA
T1 sequence (Q846X3 entry or part of it): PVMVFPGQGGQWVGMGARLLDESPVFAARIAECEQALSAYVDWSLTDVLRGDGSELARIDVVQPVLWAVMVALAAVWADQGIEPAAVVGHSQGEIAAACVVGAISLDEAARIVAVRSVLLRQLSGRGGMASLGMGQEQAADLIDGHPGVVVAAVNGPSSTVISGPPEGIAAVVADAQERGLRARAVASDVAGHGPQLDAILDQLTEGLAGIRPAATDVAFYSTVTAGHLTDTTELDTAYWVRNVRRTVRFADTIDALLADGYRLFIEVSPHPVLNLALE
From the text: trans-acylation of holo-ACP10FkbA, HPLC-MS on AT5monAIV of monensin PKS

[2] = self-acylation, HPLC-MS of intact protein; type: biochemical, Streptomyces virginiae; settings: 200 uM acyl-CoA, 20 uM AT, pH 8.0, 25 C, 1 h; covalent acyl-enzyme
From the text: (§1) self-acylation, HPLC-MS of intact protein on AT5monAIV of monensin PKS

AT4FkbB of FK520 PKS [3] = target: T2, AT4FkbB of FK520 PKS (Streptomyces hygroscopicus, UniProt Q9KIE0); experiment: self-acylation, HPLC-MS of intact protein; type: biochemical; settings: 200 uM acyl-CoA, 20 uM AT, pH 8.0, 25 C, 1 h; covalent acyl-enzyme
T2 construct: gene fkbB; excised AT domain of module 4 of FkbB, synthetic gene, E. coli BL21(DE3), Ni-NTA
T2 sequence (Q9KIE0 entry or part of it): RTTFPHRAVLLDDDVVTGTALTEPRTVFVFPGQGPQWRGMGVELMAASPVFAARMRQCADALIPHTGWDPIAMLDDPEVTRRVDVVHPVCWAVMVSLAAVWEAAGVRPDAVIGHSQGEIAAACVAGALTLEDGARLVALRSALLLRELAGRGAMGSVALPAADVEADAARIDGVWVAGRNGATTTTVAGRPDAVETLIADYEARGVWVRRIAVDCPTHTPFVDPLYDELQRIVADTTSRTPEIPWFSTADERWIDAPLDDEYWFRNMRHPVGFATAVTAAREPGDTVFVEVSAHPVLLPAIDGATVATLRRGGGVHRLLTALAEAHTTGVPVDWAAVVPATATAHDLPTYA
From the text: (§2) self-acylation, HPLC-MS of intact protein on AT4FkbB of FK520 PKS

[4] = target: T3, AT3lsd12 of lasalocid PKS (Streptomyces lasalocidi, UniProt B6ZK65); experiment: self-acylation, HPLC-MS of intact protein; type: biochemical; settings: 200 uM acyl-CoA, 20 uM AT, pH 8.0, 25 C, 1 h; covalent acyl-enzyme
T3 construct: gene lsd12; excised AT domain of module 3, synthetic gene, E. coli BL21(DE3), Ni-NTA
T3 sequence (B6ZK65 entry or part of it): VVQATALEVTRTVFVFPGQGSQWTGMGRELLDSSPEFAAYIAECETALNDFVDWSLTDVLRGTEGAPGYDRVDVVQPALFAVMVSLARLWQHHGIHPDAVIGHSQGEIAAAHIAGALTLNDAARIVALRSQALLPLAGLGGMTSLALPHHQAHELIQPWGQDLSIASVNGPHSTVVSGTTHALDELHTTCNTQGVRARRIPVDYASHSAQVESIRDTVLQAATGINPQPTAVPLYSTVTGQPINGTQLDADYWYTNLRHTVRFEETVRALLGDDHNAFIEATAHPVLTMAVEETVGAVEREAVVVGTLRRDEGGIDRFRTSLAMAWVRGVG
From the text: (§3) self-acylation, HPLC-MS of intact protein on AT3lsd12 of lasalocid PKS

AT4FkbB of FK506 PKS [5] = target: T4, AT4FkbB of FK506 PKS (Streptomyces tsukubensis, UniProt W8RMH0); experiment: self-acylation, HPLC-MS of intact protein; type: biochemical; settings: 200 uM acyl-CoA, 20 uM AT, pH 8.0, 25 C, 1 h; covalent acyl-enzyme at Ser89
T4 construct: gene fkbB; excised AT domain of module 4 of FkbB, E. coli BL21(DE3), Ni-NTA
T4 sequence (W8RMH0 entry or part of it): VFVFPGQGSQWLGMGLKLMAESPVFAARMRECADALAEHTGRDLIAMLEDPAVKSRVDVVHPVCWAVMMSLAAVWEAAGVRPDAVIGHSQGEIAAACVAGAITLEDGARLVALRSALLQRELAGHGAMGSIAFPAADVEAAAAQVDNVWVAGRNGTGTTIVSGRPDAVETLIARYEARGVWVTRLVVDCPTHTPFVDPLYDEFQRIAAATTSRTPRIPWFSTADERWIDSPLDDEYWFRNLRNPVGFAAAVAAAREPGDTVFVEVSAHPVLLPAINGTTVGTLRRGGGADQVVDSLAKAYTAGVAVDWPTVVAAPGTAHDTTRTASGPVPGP
From the text: (§4) self-acylation, HPLC-MS of intact protein on AT4FkbB of FK506 PKS

AT4FkbB of FK506 PKS [6] = target: T5, AT4FkbB of FK506 PKS (Streptomyces tsukubensis, UniProt W8RMH0, V6755K); experiment: self-acylation, HPLC-MS of intact protein; type: biochemical; settings: 200 uM acyl-CoA, 20 uM AT, pH 8.0, 25 C, 1 h; covalent acyl-enzyme
T5 construct: gene fkbB; excised AT domain of module 4 of FkbB, E. coli BL21(DE3), Ni-NTA
T5 sequence (W8RMH0 entry or part of it V6755K): as the sequence (W8RMH0 entry or part of it) above, with V187K counted along it
From the text: as §4

[7] = target: T1, AT5monAIV of monensin PKS; experiment: self-acylation, HPLC-MS of intact protein; type: biochemical; settings: 200 uM acyl-CoA, 20 uM AT, pH 8.0, 25 C, 1 h; covalent acyl-enzyme
From the text: as §1

AT4FkbB of FK520 PKS [8] = target: T2, AT4FkbB of FK520 PKS; experiment: self-acylation, HPLC-MS of intact protein; type: biochemical; settings: 200 uM acyl-CoA, 20 uM AT, pH 8.0, 25 C, 1 h; covalent acyl-enzyme; remark: listed apart in the source
From the text: as §2

[9] = target: T3, AT3lsd12 of lasalocid PKS; experiment: self-acylation, HPLC-MS of intact protein; type: biochemical; settings: 200 uM acyl-CoA, 20 uM AT, pH 8.0, 25 C, 1 h; covalent acyl-enzyme; remark: listed apart in the source
From the text: as §3

AT4FkbB of FK520 PKS [10] = target: T2, AT4FkbB of FK520 PKS; experiment: self-acylation, HPLC-MS of intact protein; type: biochemical; settings: 200 uM acyl-CoA, 20 uM AT, pH 8.0, 25 C, 1 h; covalent acyl-enzyme; remark: listed apart in the source
From the text: as §2

AT4FkbB of FK506 PKS [11] = target: T6, AT4FkbB of FK506 PKS (Streptomyces tsukubensis, UniProt W8RMH0, L6753I/V6754D/V6755T); experiment: self-acylation, HPLC-MS of intact protein; type: biochemical; settings: 200 uM acyl-CoA, 20 uM AT, pH 8.0, 25 C, 1 h; covalent acyl-enzyme
T6 construct: gene fkbB; excised AT domain of module 4 of FkbB, E. coli BL21(DE3), Ni-NTA
T6 sequence (W8RMH0 entry or part of it L6753I/V6754D/V6755T): as the sequence (W8RMH0 entry or part of it) above, with L185I, V186D, V187T counted along it
From the text: as §4

AT4FkbB of FK506 PKS [12] = target: T7, AT4FkbB of FK506 PKS (Streptomyces tsukubensis, UniProt W8RMH0, Q6687A); experiment: self-acylation, HPLC-MS of intact protein; type: biochemical; settings: 200 uM acyl-CoA, 20 uM AT, pH 8.0, 25 C, 1 h; covalent acyl-enzyme
T7 construct: gene fkbB; excised AT domain of module 4 of FkbB, E. coli BL21(DE3), Ni-NTA
T7 sequence (W8RMH0 entry or part of it Q6687A): as the sequence (W8RMH0 entry or part of it) above, with Q119A counted along it
From the text: as §4

AT4FkbB of FK506 PKS [13] = target: T8, AT4FkbB of FK506 PKS (Streptomyces tsukubensis, UniProt W8RMH0, Q6687A/L6753I/V6754D/V6755T/F6771L); experiment: self-acylation, HPLC-MS of intact protein; type: biochemical; settings: 200 uM acyl-CoA, 20 uM AT, pH 8.0, 25 C, 1 h; covalent acyl-enzyme
T8 construct: gene fkbB; excised AT domain of module 4 of FkbB, E. coli BL21(DE3), Ni-NTA
T8 sequence (W8RMH0 entry or part of it Q6687A/L6753I/V6754D/V6755T/F6771L): as the sequence (W8RMH0 entry or part of it) above, with Q119A, L185I, V186D, V187T, F203L counted along it
From the text: as §4

Trans-acylation reaction (%) / MM-ACP10FkbA [1]: 51.2%
SMILES: CC(C(=O)O)C(=O)SCCNC(=O)CCNC(=O)[C@H](O)C(C)(C)COP(=O)(O)OP(=O)(O)OC[C@H]1O[C@@H](n2cnc3c(N)ncnc32)[C@H](O)[C@@H]1OP(=O)(O)O (some centres unmarked) [MM-CoA]

Self-acylation reaction (%) / Ethmal-AT4FkbB^∗ [2]: 63.7%
Self-acylation reaction (%) / Ethmal-AT4FkbB^∗ (AT4FkbB of FK520 PKS [3]): 65.1%
Self-acylation reaction (%) / Ethmal-AT4FkbB^∗ [4]: 78.1%
Self-acylation reaction (%) / Ethmal-AT4^∗FkbB (AT4FkbB of FK506 PKS [5]): 62.0%
Self-acylation reaction (%) / Ethmal-AT4^∗FkbB (AT4FkbB of FK506 PKS [6]): 32.3%
SMILES: CCC(C(=O)O)C(=O)SCCNC(=O)CCNC(=O)[C@H](O)C(C)(C)COP(=O)(O)OP(=O)(O)OC[C@H]1O[C@@H](n2cnc3c(N)ncnc32)[C@H](O)[C@@H]1OP(=O)(O)O (some centres unmarked) [ethmal-CoA]

Self-acylation reaction (%) / Allmal-AT4FkbB^∗ [7]: 49.8%
Self-acylation reaction (%) / Allmal-AT4FkbB^∗ (AT4FkbB of FK520 PKS [3]): 31.5%
Self-acylation reaction (%) / Allmal-AT4FkbB^∗ (AT4FkbB of FK520 PKS [8]): 61.3%
Self-acylation reaction (%) / Allmal-AT4FkbB^∗ [9]: 41.4%
Self-acylation reaction (%) / Allmal-AT4FkbB^∗ [4]: 17.8%
Self-acylation reaction (%) / Allmal-AT4FkbB^∗ (AT4FkbB of FK520 PKS [10]): 58.2%
Self-acylation reaction (%) / Allmal-AT4^∗FkbB (AT4FkbB of FK506 PKS [5]): 69.7%
Self-acylation reaction (%) / Allmal-AT4^∗FkbB (AT4FkbB of FK506 PKS [11]): 28.0%
Self-acylation reaction (%) / Allmal-AT4^∗FkbB (AT4FkbB of FK506 PKS [12]): 29.2%
Self-acylation reaction (%) / Allmal-AT4^∗FkbB (AT4FkbB of FK506 PKS [13]): 27.1%
Self-acylation reaction (%) / Allmal-AT4^∗FkbB (AT4FkbB of FK506 PKS [6]): 78.8%
SMILES: C=CCC(C(=O)O)C(=O)SCCNC(=O)CCNC(=O)[C@H](O)C(C)(C)COP(=O)(O)OP(=O)(O)OC[C@H]1O[C@@H](n2cnc3c(N)ncnc32)[C@H](O)[C@@H]1OP(=O)(O)O (some centres unmarked) [allmal-CoA]
